In ChEMBL document CHEMBL5260854, “Discovery of Novel TRPM8 Blockers Suitable for the Treatment of Somatic and Ocular Painful Conditions: A Journey through pKa and LogD Modulation” (J Med Chem, 2021):
Converted amounts (≈) assume the structure as drawn. Values belong to the compound of their own block, whether it stands above or below them. The source made the active and inactive calls. The calls are words filed in the database; no cut-off is given here.

Experiments:
[1] = Dissociation constant, pKa of the compound; type: physicochemical
[2] = Lipophilicity, logD of the compound at pH 7.4; type: physicochemical; details: buffer
[3] = Metabolic stability in rat liver microsomes assessed as phase 1 metabolism by measuring half life; type: ADME, Microsome
[4] = Metabolic stability in rat liver microsomes assessed as phase 2 metabolism by measuring half life; type: ADME, Microsome
[5] = target: T1, Transient receptor potential cation channel subfamily M member 8 (Homo sapiens, UniProt Q7Z2W7); assay: Inhibition of human TRPM8 expressed in HEK293 cells assessed as reduction in ethyl 4-methoxy-2-phenylthiazole-5-carboxylate induced Ca2+ efflux preincubated for 5 mins followed by ethyl 4-methoxy-2-phenylthiazole-5-carboxylate addition and measured for 3 mins by FLIPR assay; type: cell-based
[6] = Metabolic stability in rat liver microsomes assessed as parent compound remaining after 30 mins; type: ADME, Microsome; details: for remaining at 0.5 h: read-out: Stability
[7] = Clearance in rat at 3 mg/kg, iv; type: ADME, organism-based; details: in vivo
[8] = Volume of distribution at steady state in rat at 3 mg/kg, iv; type: ADME, organism-based; details: in vivo, read-out: Vdss
[9] = Half life in rat at 3 mg/kg, iv; type: ADME, organism-based; details: in vivo
[10] = Cmax in rat at 10 mg/kg, po; type: ADME, organism-based; parameters: dose 10 mg/kg, route po; details: in vivo
[11] = Half life in rat at 10 mg/kg, po; type: ADME, organism-based; details: in vivo
[12] = Oral bioavailability in rat at 10 mg/kg; type: ADME, organism-based; details: in vivo
[13] = Solubility of compound at pH 7.4; type: physicochemical; details: buffer
[14] = Stability in human hepatocytes assessed as half life; type: ADME, cell-based, Hepatocyte
[15] = Stability in human plasma assessed as compound remaining after 60 mins; type: ADME, cell-free; details: read-out: Stability
[16] = Stability in rat plasma assessed as compound remaining after 60 mins; type: ADME, cell-free; details: read-out: Stability
[17] = Lipophilicity, logP of compound; type: physicochemical; details: octanol/water
[18] = Apparent permeability in HCECs at 0.1%; type: ADME, cell-based, HCEC; details: human, not told
[19] = Clearance in rat at 10 mg/kg, iv; type: ADME, organism-based; details: in vivo
[20] = Volume of distribution at steady state in rat at 10 mg/kg, iv; type: ADME, organism-based; details: in vivo, read-out: Vdss
[21] = Half life in rat at 10 mg/kg, iv; type: ADME, organism-based; details: in vivo
[22] = Metabolic stability in rat liver microsomes assessed as parent compound remaining after 4 hrs; type: ADME, Microsome; details: read-out: Stability
[23] = Stability in stimulated gastric fluid at pH 1.2; type: physicochemical; details: simulated gi fluid
[24] = Metabolic stability in human liver S9 fraction assay as half life in presence of NADPH, glutathione, UDPGA and PAPS; type: ADME, subcellular
[25] = target: T1, Transient receptor potential cation channel subfamily M member 8; assay: Inhibition of human TRPM8 expressed in HEK293 cells assessed as reduction in icilin induced Ca2+ efflux preincubated for 5 mins followed by icilin addition and measured for 3 mins by FLIPR assay; type: cell-based
[26] = target: Transient receptor potential cation channel subfamily V member 1 (Homo sapiens) (UniProt Q8NER1); assay: Inhibition of TRPV1 (unknown origin) upto 100 uM
[27] = target: Transient receptor potential cation channel subfamily V member 4 (Homo sapiens) (UniProt Q9HBA0); assay: Inhibition of TRPV4 (unknown origin) upto 100 uM
[28] = target: Transient receptor potential cation channel subfamily A member 1 (Homo sapiens) (UniProt O75762); assay: Inhibition of TRPA1 (unknown origin) upto 100 uM
[29] = target: Sodium channel protein type 9 subunit alpha (Homo sapiens) (UniProt Q15858); assay: Inhibition of Nav1.7 (unknown origin)
[30] = Clearance in rat at 5 mg/kg, iv; type: ADME, organism-based; details: in vivo
[31] = Volume of distribution at steady state in rat at 5 mg/kg, iv; type: ADME, organism-based; details: in vivo, read-out: Vdss
[32] = Half life in rat at 5 mg/kg, iv; type: ADME, organism-based; details: in vivo
[33] = target: T1, Transient receptor potential cation channel subfamily M member 8; assay: Inhibition of human TRPM8 expressed in HEK293 cells assessed as reduction in cold stimulated Ca2+ efflux preincubated for 5 mins followed by cold stimulation and measured for 3 mins; type: cell-based
[34] = target: Transient receptor potential cation channel subfamily M member 3 (Homo sapiens) (UniProt Q9HCF6); assay: Inhibition of TRPM3 (unknown origin) upto 100 uM

T1 sequence (Q7Z2W7 whole entry): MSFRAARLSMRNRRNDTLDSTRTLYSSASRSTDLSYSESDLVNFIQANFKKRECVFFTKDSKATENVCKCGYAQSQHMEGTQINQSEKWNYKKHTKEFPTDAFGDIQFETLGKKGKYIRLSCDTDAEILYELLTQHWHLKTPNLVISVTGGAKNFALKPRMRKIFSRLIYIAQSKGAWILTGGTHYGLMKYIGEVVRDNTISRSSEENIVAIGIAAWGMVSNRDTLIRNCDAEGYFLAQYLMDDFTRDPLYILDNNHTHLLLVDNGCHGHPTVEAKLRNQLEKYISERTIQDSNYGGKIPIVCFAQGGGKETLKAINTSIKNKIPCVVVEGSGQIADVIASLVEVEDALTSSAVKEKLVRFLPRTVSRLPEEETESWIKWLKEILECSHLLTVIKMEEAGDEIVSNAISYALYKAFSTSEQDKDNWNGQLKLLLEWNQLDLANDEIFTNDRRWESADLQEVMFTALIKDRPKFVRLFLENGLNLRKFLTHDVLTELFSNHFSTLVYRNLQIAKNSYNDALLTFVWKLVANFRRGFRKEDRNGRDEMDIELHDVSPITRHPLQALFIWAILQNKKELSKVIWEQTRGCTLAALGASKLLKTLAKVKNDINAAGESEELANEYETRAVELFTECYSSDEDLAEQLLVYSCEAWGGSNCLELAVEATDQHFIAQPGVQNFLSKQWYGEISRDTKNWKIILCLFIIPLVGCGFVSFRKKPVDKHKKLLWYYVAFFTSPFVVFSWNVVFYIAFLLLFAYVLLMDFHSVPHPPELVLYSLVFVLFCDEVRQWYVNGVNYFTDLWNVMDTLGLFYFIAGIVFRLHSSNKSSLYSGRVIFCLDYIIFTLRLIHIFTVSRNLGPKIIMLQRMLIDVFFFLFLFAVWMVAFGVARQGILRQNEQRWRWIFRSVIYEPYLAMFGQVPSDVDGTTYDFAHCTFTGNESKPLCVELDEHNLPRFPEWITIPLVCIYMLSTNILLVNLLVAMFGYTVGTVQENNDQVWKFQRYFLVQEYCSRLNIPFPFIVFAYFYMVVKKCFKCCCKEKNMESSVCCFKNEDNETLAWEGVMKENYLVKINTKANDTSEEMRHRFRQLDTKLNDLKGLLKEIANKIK
Transient receptor potential cation channel subfamily V member 4 (Homo sapiens), sequence (Q9HBA0 whole entry): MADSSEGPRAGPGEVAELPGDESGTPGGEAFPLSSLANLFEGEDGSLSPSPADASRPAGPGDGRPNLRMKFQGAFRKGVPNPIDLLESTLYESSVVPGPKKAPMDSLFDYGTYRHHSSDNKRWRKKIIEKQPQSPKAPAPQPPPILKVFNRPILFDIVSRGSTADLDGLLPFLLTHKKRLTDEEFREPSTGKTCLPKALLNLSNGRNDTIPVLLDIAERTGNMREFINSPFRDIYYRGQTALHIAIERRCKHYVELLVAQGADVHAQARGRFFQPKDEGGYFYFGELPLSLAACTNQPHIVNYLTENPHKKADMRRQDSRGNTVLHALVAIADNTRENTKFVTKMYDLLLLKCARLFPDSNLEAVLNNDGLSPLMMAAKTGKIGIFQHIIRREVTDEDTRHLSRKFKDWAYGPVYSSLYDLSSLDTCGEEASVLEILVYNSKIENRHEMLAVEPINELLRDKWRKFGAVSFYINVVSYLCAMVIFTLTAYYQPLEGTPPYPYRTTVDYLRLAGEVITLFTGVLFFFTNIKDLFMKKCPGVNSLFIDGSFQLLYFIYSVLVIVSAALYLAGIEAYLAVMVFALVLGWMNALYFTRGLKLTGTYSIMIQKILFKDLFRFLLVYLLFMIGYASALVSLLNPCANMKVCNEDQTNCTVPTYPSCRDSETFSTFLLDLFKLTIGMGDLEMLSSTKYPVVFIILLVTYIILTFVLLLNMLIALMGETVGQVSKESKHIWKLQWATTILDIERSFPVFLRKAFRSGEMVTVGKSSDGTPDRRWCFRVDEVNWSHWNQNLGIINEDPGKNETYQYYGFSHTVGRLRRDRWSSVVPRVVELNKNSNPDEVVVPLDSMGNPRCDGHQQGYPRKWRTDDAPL
Transient receptor potential cation channel subfamily V member 1 (Homo sapiens), sequence (Q8NER1 whole entry): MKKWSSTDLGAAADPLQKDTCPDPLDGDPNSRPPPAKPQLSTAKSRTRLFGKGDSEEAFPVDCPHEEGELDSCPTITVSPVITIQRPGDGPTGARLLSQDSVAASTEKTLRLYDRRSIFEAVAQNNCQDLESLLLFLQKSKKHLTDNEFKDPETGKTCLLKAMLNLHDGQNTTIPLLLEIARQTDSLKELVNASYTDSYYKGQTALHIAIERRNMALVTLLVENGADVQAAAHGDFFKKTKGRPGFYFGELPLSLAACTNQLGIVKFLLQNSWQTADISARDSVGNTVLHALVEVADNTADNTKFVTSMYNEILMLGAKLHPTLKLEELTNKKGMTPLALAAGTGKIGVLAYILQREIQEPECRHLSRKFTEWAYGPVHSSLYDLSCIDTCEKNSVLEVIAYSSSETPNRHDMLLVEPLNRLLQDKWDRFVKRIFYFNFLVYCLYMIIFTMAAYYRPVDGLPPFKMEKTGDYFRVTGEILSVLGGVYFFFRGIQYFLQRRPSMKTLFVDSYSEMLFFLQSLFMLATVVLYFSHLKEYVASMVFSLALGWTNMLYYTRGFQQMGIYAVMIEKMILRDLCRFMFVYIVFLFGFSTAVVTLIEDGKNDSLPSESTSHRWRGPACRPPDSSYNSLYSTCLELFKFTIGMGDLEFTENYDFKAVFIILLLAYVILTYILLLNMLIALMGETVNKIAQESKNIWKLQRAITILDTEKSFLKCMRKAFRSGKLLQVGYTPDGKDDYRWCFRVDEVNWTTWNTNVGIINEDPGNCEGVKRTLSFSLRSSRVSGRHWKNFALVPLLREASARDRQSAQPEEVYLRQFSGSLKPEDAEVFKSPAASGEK
Transient receptor potential cation channel subfamily A member 1 (Homo sapiens), sequence (O75762 whole entry): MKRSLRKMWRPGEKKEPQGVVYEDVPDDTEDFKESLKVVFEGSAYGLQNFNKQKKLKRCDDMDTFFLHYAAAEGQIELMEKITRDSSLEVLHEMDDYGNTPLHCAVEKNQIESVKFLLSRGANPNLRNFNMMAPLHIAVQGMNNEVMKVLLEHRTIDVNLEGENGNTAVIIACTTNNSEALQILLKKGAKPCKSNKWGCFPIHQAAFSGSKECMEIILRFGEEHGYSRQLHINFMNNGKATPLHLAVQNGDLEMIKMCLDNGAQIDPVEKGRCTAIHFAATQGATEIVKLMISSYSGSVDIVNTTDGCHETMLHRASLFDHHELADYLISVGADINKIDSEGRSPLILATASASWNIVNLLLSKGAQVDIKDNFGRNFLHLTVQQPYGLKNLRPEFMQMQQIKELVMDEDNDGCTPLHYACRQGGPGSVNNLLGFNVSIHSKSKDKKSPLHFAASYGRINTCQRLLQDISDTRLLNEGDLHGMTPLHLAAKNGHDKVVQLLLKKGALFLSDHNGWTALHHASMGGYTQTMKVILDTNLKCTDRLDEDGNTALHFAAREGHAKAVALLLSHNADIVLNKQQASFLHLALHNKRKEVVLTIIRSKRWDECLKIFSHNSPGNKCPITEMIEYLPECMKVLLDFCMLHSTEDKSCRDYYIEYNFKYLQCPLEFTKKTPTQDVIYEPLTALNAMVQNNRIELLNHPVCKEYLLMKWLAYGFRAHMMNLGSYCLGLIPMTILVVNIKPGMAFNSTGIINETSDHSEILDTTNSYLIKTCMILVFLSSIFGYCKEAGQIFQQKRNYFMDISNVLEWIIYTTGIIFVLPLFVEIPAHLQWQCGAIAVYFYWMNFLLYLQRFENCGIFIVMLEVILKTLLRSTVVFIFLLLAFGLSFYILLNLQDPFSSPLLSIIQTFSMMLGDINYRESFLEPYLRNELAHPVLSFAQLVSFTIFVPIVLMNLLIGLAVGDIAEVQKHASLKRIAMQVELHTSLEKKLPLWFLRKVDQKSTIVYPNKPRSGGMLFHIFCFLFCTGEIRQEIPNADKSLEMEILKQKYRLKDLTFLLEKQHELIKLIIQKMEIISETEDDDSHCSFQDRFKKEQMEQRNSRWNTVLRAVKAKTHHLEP

Compound: CC(C)C(=O)c1sc(-c2cccc(F)c2)nc1O
- pKa [1]: 4.27
- logD [2]: 0.91
- half-life [3]: 59.1 min
- half-life [4]: 97.8 min

Compound: CC(C)CC(=O)c1sc(-c2cccc(F)c2)nc1O
- IC50 [5]: 289 nM
- pKa [1]: 4.3
- logD [2]: 1.35
- half-life [3]: 49.8 min
- half-life [4]: 156 min

Compound: O=C(c1sc(-c2cccc(F)c2)nc1O)N1CCOCC1
- IC50 [5]: 12200 nM

Compound: CCOC(=O)c1sc(-c2ccccc2)nc1N
- IC50 [5]: > 100000 nM

Compound: CCOC(=O)c1sc(-c2ccccc2)nc1CO
- IC50 [5]: > 100000 nM

Compound: CCOC(=O)c1sc(-c2ccccc2)nc1OC
- IC50 [5]: > 100000 nM

Compound: O=C(c1sc(-c2cccc(F)c2)nc1O)N1CCCOC1
- IC50 [5]: > 100000 nM

Compound: O=C(O)c1ccc(C(=O)O)c(-c2c3ccc(=O)cc-3oc3cc(O)ccc23)c1 [6-Carboxyfluorescein]
- Papp at 0.1 % [18]: 1.9 ×10⁻⁶ cm/s

Compound: COc1cccc(NS(=O)(=O)c2c(C)cc(C)c([N+](=O)[O-])c2C)c1
- remaining at 0.5 h [6]: 29%
- logP [17]: 4.33
- pKa [1]: 7.8
- logD [2]: 3.19

Compound: O=C(c1sc(-c2cccc(F)c2)nc1O)N1CCCO1
- pKa [1]: 6.3
- logD [2]: 0.82
- solubility [13]: 7.1 mM (≈ 2090 µg/mL)
- half-life [24]: > 120 min
- Papp at 0.1 % [18]: 16.4 ×10⁻⁶ cm/s

Compound: O=C(c1sc(-c2ccccc2O)nc1O)N1CCCO1
- pKa [1]: 9.3
- logD [2]: 0.77
- solubility [13]: 9.7 mM (≈ 2840 µg/mL)
- half-life [24]: 53 min
- IC50 [25]: 4.5 nM
- inhibition [26]: inactive
- inhibition [27]: inactive
- inhibition [28]: inactive
- inhibition [29]: inactive
- Papp at 0.1 % [18]: 48.3 ×10⁻⁶ cm/s

Compound: COC(=O)c1nc(-c2ccccc2)sc1O
- IC50 [5]: > 100000 nM

Compound: O=C(O)c1sc(-c2ccccc2)nc1O
- IC50 [5]: > 100000 nM

Compound: CCN(C(=O)/C=C/c1cccc([N+](=O)[O-])c1)c1ccccc1
- IC50 [5]: 575 nM
- remaining at 0.5 h [6]: 32%
- logP [17]: 3.6

Compound: CCOC(=O)c1cnc(-c2ccccc2)s1
- IC50 [5]: > 100000 nM

Compound: CCN(CC)c1ccc2c(-c3ccccc3C(=O)O)c3ccc(=[N+](CC)CC)cc-3oc2c1.[Cl-] [RHODAMINE]
- Papp at 0.1 % [18]: 36.6 ×10⁻⁶ cm/s

Compound: O=C(c1sc(-c2cccc(F)c2)nc1O)N1CCCCCO1
- IC50 [5]: 32 nM

Compound: CCOC(=O)c1ccc(-c2cccc(F)c2)cc1O
- IC50 [5]: > 100000 nM

Results, then the compound that gave them:

- IC50 [5]: 9100 nM
Compound: Cc1nnc(-c2sc(-c3cccc(F)c3)nc2O)o1

- half-life [6]: < 30 min
- pKa [1]: 5.9
- logD [2]: 2
- half-life [3]: 38 min
- half-life [4]: > 5 min
- clearance [7]: 3.11 mL/min/kg
- Vd [8]: 0.082 L/kg
- half-life [9]: 44.4 min
- Cmax [10]: 47 ng/mL
- half-life [11]: 307 min
- bioavailability [12]: 1%
- solubility [13]: 0.631 mM (≈ 184 µg/mL)
- half-life [14]: 56.7 min
- remaining at 1 h [15]: 95%
- remaining at 1 h [16]: 92%
Compound: CCn1nnc(-c2sc(-c3cccc(F)c3)nc2O)n1

- IC50 [5]: 1300 nM
Compound: CCOC(=O)c1sc(-c2cccc(Cl)c2)nc1O

- pKa [1]: 4.31
- logD [2]: 1.18
- half-life [3]: 39.3 min
- half-life [4]: 127 min
Compound: CCCC(=O)c1sc(-c2cccc(F)c2)nc1O

- IC50 [5]: > 100000 nM
Compound: Oc1nc(-c2cccc(F)c2)sc1-c1nn[nH]n1

- IC50 [5]: 11600 nM
Compound: CCn1nnc(-c2sc(-c3ccc(O)cc3)nc2O)n1

- IC50 [5]: 1680 nM
Compound: CCON(C)C(=O)c1sc(-c2cccc(F)c2)nc1O

- IC50 [5]: 286 nM
Compound: CCn1nnc(-c2sc(-c3ccc(F)cc3)nc2O)n1

- remaining at 0.5 h [6]: 41%
- logP [17]: 3.57
Compound: CSc1cc(-c2ccc(Cl)cc2)[nH]n1

- IC50 [5]: 39 nM
- pKa [1]: 4.7
- logD [2]: 1.5
- half-life [3]: 27 min
- half-life [4]: > 5 min
- clearance [19]: 24 mL/min/kg
- Vd [20]: 0.259 L/kg
- half-life [21]: 33.6 min
- Cmax [10]: 2140 ng/mL
- half-life [11]: 137 min
- bioavailability [12]: 15%
- solubility [13]: 0.08 mM (≈ 21.4 µg/mL)
- remaining at 4 h [22]: 105%
- Stability [23]: 50%
Compound: CCOC(=O)c1sc(-c2cccc(F)c2)nc1O

- IC50 [5]: 7550 nM
Compound: CCn1nnc(-c2sc(-c3ccc(Cl)cc3)nc2O)n1

- IC50 [5]: > 100000 nM
Compound: CCOC(=O)c1oc(-c2ccc(Cl)cc2)nc1O

- pKa [1]: 4.1
- logD [2]: 0.77
- half-life [3]: 35.2 min
- half-life [4]: 108 min
Compound: CC(=O)c1sc(-c2cccc(F)c2)nc1O

- IC50 [5]: > 100000 nM
Compound: CCn1nnnc1-c1sc(-c2cccc(F)c2)nc1O

- IC50 [5]: 239 nM
Compound: CCn1nnc(-c2sc(-c3cccc(O)c3)nc2O)n1

- remaining at 0.5 h [6]: 42%
- logP [17]: 3.77
- pKa [1]: 6.3
- logD [2]: 2.5
Compound: COC(=O)c1sc(-c2ccccc2)nc1O

- IC50 [5]: 32 nM
Compound: CCOC(=O)c1sc(-c2ccccc2)nc1O

- IC50 [5]: 950 nM
Compound: CCOC(=O)Cc1sc(-c2ccccc2)nc1O

- IC50 [5]: 214 nM
Compound: Cn1nnc(-c2sc(-c3cccc(F)c3)nc2O)n1

- IC50 [5]: 16500 nM
Compound: CCn1nnc(-c2sc(-c3c(Cl)cccc3Cl)nc2O)n1

- IC50 [5]: > 100000 nM
Compound: CCNC(=O)c1sc(-c2ccccc2)nc1O

- IC50 [5]: 61 nM
Compound: CCn1nnc(-c2sc(-c3cccc(N)c3)nc2O)n1

- IC50 [5]: 29 nM
- logD [2]: 0.44
- half-life [3]: 118 min
- half-life [4]: 136 min
- clearance [30]: 5.31 mL/min/kg
- Vd [31]: 1.69 L/kg
- half-life [32]: 189 min
- Cmax [10]: 10700 ng/mL
- half-life [11]: 188 min
- bioavailability [12]: 98.8%
- solubility [13]: 15.2 mM (≈ 3820 µg/mL)
- IC50 [25]: 33 nM
- IC50 [33]: 8.5 nM
- inhibition [34]: inactive
- inhibition [26]: inactive
- inhibition [27]: inactive
- inhibition [28]: inactive
Compound: CCC(=O)c1sc(-c2cccc(F)c2)nc1O

- IC50 [5]: 1800 nM
Compound: Cc1nc(-c2sc(-c3cccc(F)c3)nc2O)no1
